According to the NIST ThermoML archive (doi:10.1021/je500886a):

Assay: mn = molality of the nth substance listed, in mol/kg
Settings: 101 kPa, Liquid

OC[C@@H](O)[C@H](O)[C@@H](O)CO [xylitol] + O
Settings | mass density, 288.15 K [kg/m3] | mass density, 298.15 K [kg/m3] | mass density, 308.15 K [kg/m3] | mass density, 318.15 K [kg/m3] | viscosity, 288.15 K [mPa·s] | viscosity, 298.15 K [mPa·s] | viscosity, 308.15 K [mPa·s] | viscosity, 318.15 K [mPa·s]
m1 = 0.04981 | – | – | – | – | 1.164 | 0.909 | 0.733 | 0.607
m1 = 0.0542 | 1001.89 | 999.75 | 996.72 | 992.86 | – | – | – | –
m1 = 0.06784 | – | – | – | – | 1.173 | 0.915 | 0.738 | 0.611
m1 = 0.07245 | 1002.81 | 1000.65 | 997.6 | 993.73 | – | – | – | –
m1 = 0.0852 | 1003.45 | 1001.27 | 998.22 | 994.33 | – | – | – | –
m1 = 0.08897 | – | – | – | – | 1.183 | 0.922 | 0.743 | 0.615
m1 = 0.1059 | – | – | – | – | 1.191 | 0.93 | 0.747 | 0.619
m1 = 0.1095 | 1004.66 | 1002.44 | 999.37 | 995.46 | – | – | – | –
m1 = 0.1313 | – | – | – | – | 1.204 | 0.939 | 0.755 | 0.624
m1 = 0.1314 | 1005.74 | 1003.49 | 1000.41 | 996.48 | – | – | – | –
m1 = 0.1501 | – | – | – | – | 1.212 | 0.945 | 0.76 | 0.628
m1 = 0.1527 | 1006.77 | 1004.5 | 1001.41 | 997.46 | – | – | – | –

OC[C@@H](O)[C@@H](O)[C@H](O)[C@H](O)CO [D-mannitol] + O
Settings | mass density, 288.15 K [kg/m3] | mass density, 298.15 K [kg/m3] | mass density, 308.15 K [kg/m3] | mass density, 318.15 K [kg/m3] | viscosity, 288.15 K [mPa·s] | viscosity, 298.15 K [mPa·s] | viscosity, 308.15 K [mPa·s] | viscosity, 318.15 K [mPa·s]
m1 = 0.04909 | 1002.3 | 1000.12 | 997.07 | 993.22 | – | – | – | –
m1 = 0.05269 | – | – | – | – | 1.176 | 0.918 | 0.74 | 0.611
m1 = 0.06889 | 1003.56 | 1001.34 | 998.27 | 994.41 | – | – | – | –
m1 = 0.07011 | – | – | – | – | 1.189 | 0.927 | 0.747 | 0.617
m1 = 0.09002 | 1004.91 | 1002.62 | 999.54 | 995.65 | – | – | – | –
m1 = 0.09107 | – | – | – | – | 1.203 | 0.936 | 0.754 | 0.621
m1 = 0.1097 | – | – | – | – | 1.217 | 0.945 | 0.761 | 0.627
m1 = 0.1134 | 1006.38 | 1004.04 | 1000.93 | 997.03 | – | – | – | –
m1 = 0.1266 | 1007.19 | 1004.82 | 1001.71 | 997.8 | – | – | – | –
m1 = 0.1293 | – | – | – | – | 1.23 | 0.955 | 0.765 | 0.633
m1 = 0.1469 | 1008.45 | 1006.03 | 1002.9 | 998.97 | – | – | – | –
m1 = 0.15 | – | – | – | – | 1.246 | 0.964 | 0.774 | 0.639

OC[C@@H](O)C(O)[C@H](O)CO [D-arabitol] + O
Settings | mass density, 288.15 K [kg/m3] | mass density, 298.15 K [kg/m3] | mass density, 308.15 K [kg/m3] | mass density, 318.15 K [kg/m3] | viscosity, 288.15 K [mPa·s] | viscosity, 298.15 K [mPa·s] | viscosity, 308.15 K [mPa·s] | viscosity, 318.15 K [mPa·s]
m1 = 0.05025 | – | – | – | – | 1.162 | 0.906 | 0.73 | 0.604
m1 = 0.0542 | 1001.87 | 999.73 | 996.7 | 992.83 | – | – | – | –
m1 = 0.06886 | – | – | – | – | 1.172 | 0.913 | 0.735 | 0.608
m1 = 0.07304 | 1002.82 | 1000.65 | 997.61 | 993.72 | – | – | – | –
m1 = 0.08867 | 1003.59 | 1001.41 | 998.35 | 994.45 | – | – | – | –
m1 = 0.09155 | – | – | – | – | 1.183 | 0.92 | 0.74 | 0.611
m1 = 0.1053 | 1004.4 | 1002.21 | 999.14 | 995.22 | – | – | – | –
m1 = 0.1061 | – | – | – | – | 1.189 | 0.925 | 0.744 | 0.613
m1 = 0.1258 | – | – | – | – | 1.198 | 0.931 | 0.748 | 0.617
m1 = 0.1323 | 1005.72 | 1003.5 | 1000.41 | 996.46 | – | – | – | –
m1 = 0.1507 | – | – | – | – | 1.209 | 0.94 | 0.754 | 0.621
m1 = 0.1512 | 1006.64 | 1004.39 | 1001.3 | 997.33 | – | – | – | –
